One assay has as its system lipoxygenase. Conditions: literature (Bedford et al., 1983); cited from earlier work.
Another assay deals with cyclooxygenase. Conditions: literature; cited from earlier work.
Assay [1] concerns the target T1, prostaglandin-endoperoxide synthase (PGHS) (Ovis aries, UniProt P05979).
T1 construct: isolated from sheep seminal gland; purchased Cayman Chemical 60100; host or cells: sheep seminal gland
T1 sequence (P05979 25-600): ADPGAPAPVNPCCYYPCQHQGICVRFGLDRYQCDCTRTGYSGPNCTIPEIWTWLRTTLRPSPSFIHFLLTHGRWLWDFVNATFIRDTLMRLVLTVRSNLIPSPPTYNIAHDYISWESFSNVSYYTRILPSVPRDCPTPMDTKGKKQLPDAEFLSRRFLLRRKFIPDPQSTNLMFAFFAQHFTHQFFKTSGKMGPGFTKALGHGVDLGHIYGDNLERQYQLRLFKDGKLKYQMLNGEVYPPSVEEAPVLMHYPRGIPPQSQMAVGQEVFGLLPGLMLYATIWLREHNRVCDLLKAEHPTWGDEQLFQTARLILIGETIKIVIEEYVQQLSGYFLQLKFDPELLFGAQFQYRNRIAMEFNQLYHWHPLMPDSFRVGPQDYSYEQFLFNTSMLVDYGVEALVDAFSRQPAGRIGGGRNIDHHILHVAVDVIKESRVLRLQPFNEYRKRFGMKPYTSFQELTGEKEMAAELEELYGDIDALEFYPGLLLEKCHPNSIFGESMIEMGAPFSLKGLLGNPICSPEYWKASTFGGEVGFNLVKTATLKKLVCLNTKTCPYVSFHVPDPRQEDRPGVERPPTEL
Kind of assay: Measurement of the activating and/or stabilizing power at a given concentration (oxygen consumption, Clark electrode). It counts as biochemical, sheep. Conditions: 0.5 mM; 37° C.; initial rate; % relative to control. From the text: As indicated above, the enzymatic activity of a cyclooxygenase is indicated by a consumption of oxygen. It is therefore possible to monitor the course of the reaction in progress by measuring the consumption of oxygen in the reaction medium and thus to evaluate the activity of the enzyme by measuring the consumption of oxygen.
At time T=0 of the process, a buffered solution containing a cyclooxygenase is introduced into a measuring tank and then the whole is allowed to stabilize for at least one minute.
At time T=1 minute, an appropriate quantity of enzyme substrate is added and the oxygen consumption of the reaction is recorded.
This recording makes it possible to deduce the initial rate of the reaction and the period during which the initial rate of the reaction is maintained.
When a substance potentially having an activity on the cyclooxygenase is tested, the variation of the slope in a positive or negative direction relative to the results obtained with the enzyme alone reflects either the activation or the inhibition of the activity of the enzyme.
Measurement of the activating and/or stabilizing power of pyrimidine derivatives substituted at the 6th position, at a given concentration.
The quantity of oxygen necessary for the oxidation of arachidonic acid is measured by the cyclooxygenase activity of prostaglandin-endoperoxide synthase, in the presence or absence of the derivative to be tested.
The measurements of the consumption of oxygen are performed with a Clark electrode connected to a YSI 5300 oxygen meter of the Yellow Spring Instruments trademark.
These measurements are performed in an open chamber, with constant stirring, at a temperature of 37° C.
If a graph recorder is used, the measurement of the oxygen consumption takes the form of a curve whose maximum slope makes it possible to deduce the initial rate of the reaction, and from which it is possible to calculate the period during which the initial rate of the reaction is maintained.
The measurement of the activity of the derivatives to be tested is performed under the same conditions, by adding, to the reaction medium, the derivative to be tested. It is the variation of the slope and the variation of the period during which the maximum rate is maintained which make it possible to evaluate the activity of the derivative to be tested towards cyclooxygenase.
A solution of 0.1M TRIS and 5 mM EDTA at pH=8.00 (TE solution) is prepared.
The substrate is prepared in the form of a stock solution of potassium arachidonate according to the manufacturer's procedure (Interchim, France).
The solution thus obtained has an arachidonic acid titre of 46 mM. It can be stored at 4° C. for 24 hours.
The derivatives to be tested are prepared in the form of a stock solution with a titre of 5 mM in a water/alcohol mixture (80/20) and tested with the same batch of enzyme.
At t=0, there are introduced into the measuring chamber 380 μl of TEA buffer preheated to 37° C. that are allowed to equilibrate for at least one minute.
At t=1, 300 units of enzyme (PGHS) are introduced.
The recording is initiated and the whole is again allowed to stabilize for one minute. The recording obtained gives the base level of the reaction.
After an additional minute, 10 μl of substrate are introduced and the consumption of oxygen is recorded for 2 to 3 minutes.
The initial rate of the reaction and the period during which this rate is maintained are thus determined.
The experimental conditions are identical to those above, except that the TEA buffer preheated to 37° C. is replaced by an identical buffer containing the derivative to be tested at a concentration of 0.5 mM.

The target of assay [2] is T2, prostaglandin-endoperoxide synthase (Ovis aries, UniProt P05979).
T2 construct: isolated from sheep seminal gland
T2 sequence (P05979 25-600): T1 sequence (P05979 25-600)
Kind of assay: Calculation of the 50% activating concentration (AC 50) for the activation of prostaglandin-endoperoxide synthase. The format is biochemical, sheep. As to the method: Calculation of the 50% activating concentration (AC 50) of 2,4-diamino-6-piperidinopyrimidine 3-oxide for the activation of prostaglandin-endoperoxide synthase. 2,4-diamino-6-piperidinopyrimidine 3-oxide Activation
By a statistical calculation (log-linear regression, the correlation coefficient being 0.98 and the significance of the binding less than or equal to 0.01), an AC 50 is found for 40 μM for 2,4-diamino-6-piperidinopyrimidine 3-oxide.

A further assay deals with hair growth. Conditions: U.S. Pat. No. 4,596,812; cited from earlier work.
For assay [3] the following is noted: U.S. Pat. No. 4,596,812; cited from earlier work.

The text below walks through data of patent US5756092A, “Use, in a composition, as cyclooxygenase activator and/or stabilizer, of at least one pyrimidine derivative sustituted at the 6th position and a cyclooxygenase substrate” (SocieteL'Oreal S.A., priority 1995, dated 1998).

As for `O=C1C(O)=C(O)C(=O)c2cc(Cl)ccc21` [6-chloro-2,3-dihydroxy-1,4-naphthoquinone], the effect on lipoxygenase result in the assay on lipoxygenase was “lipoxygenase inhibitor”. The “effect on cyclooxygenase activity” value in the assay on cyclooxygenase is listed as “cyclooxygenase stimulating agent”.
On to `CCCNc1cc(N(C)C)nc(NCCC)[n+]1[O-]` [2,4-dipropylamino-6-dimethylaminopyrimidine 3-oxide], for which, in assay [1], the activation at 500 µM amounted to 171%.
`CCCNc1cc(N2CCCCC2)nc(N)[n+]1[O-]` [2-amino-4-propylamino-6-piperidinopyrimidine 3-oxide]: the activation at 500 µM in assay [1] amounted to 173%.
The same measure, in the same setting: as for `COc1ccc2c(c1)c(CC(=O)O)c(C)n2C(=O)c1ccc(Cl)cc1` [Indomethacin, 1-(4-Chlorobenzoyl)-5-methoxy-2-methyl-1H-indole-3-acetic acid], the figure is -100%; as for `Nc1cc(N2CCCCC2)nc(N)n1` [2,4-diamino-6-piperidinopyrimidine], -14%.
As to `Nc1cc(N2CCCCC2)nc(N)[n+]1[O-]` [2,4-diamino-6-piperidinopyrimidine 3-oxide], in assay [2] (15.6 μM, read-out: Activation (% of control)), the activation at 15.6 µM is 23%. In addition, the activation at 62.5 µM in assay [2] (62.5 μM, read-out: Activation (% of control)) is 61%. Moreover, the activation at 125 µM in assay [2] (125 μM, read-out: Activation (% of control)) was 90%. For the same compound, the activation at 250 µM in assay [2] (250 μM, read-out: Activation (% of control)) is 102%. The activation at 500 µM in assay [2] (500 μM, read-out: Activation (% of control)) was 146%; in assay [1], 58%. In assay [2] (1000 μM, read-out: Activation (% of control)), the activation at 1000 µM was 181%. The AC50 in assay [2] (log-linear regression, correlation coefficient 0.98) is 40 µM. The “capacity to promote hair growth” value in the assay with hair growth is “capacity to promote hair growth”. In addition, the antihypertensive effects entry in assay [3] is “antihypertensive effects”.
With `Cc1nc(N2CCCCC2)cc(N)[n+]1[O-]` [2-methyl-4-amino-6-piperidinopyrimidine 3-oxide], in assay [1], the activation at 500 µM turned out to be 24%.
The same measure, in the same setting: to `CCCNc1cc(N(C)C)nc(N)[n+]1[O-]` [2-amino-4-propylamino-6-dimethylaminopyrimidine 3-oxide] belongs 117%.
Still for that read-out and setting: as for `CCCCOc1cc(N)[n+]([O-])c(N)n1` [2,4-diamino-6-butyloxypyrimidine 3-oxide], the figure is 13%.

As usually defined, the AC50 is the concentration at which the activity in the assay is half-maximal.
